# In ChEMBL document CHEMBL4831493 (Eur J Med Chem, 2021):
# What was measured:
# Acetylcholinesterase [1] = target: Acetylcholinesterase (Homo sapiens, UniProt P22303); experiment: Inhibition of human recombinant AChE preincubated for 1 min in presence of DNTB followed by addition of acetylthiocholine iodide substrate and measured after 20 mins by Ellman's method
# [2] = target: Glycogen synthase kinase-3 beta (Homo sapiens, UniProt P49841); experiment: Inhibition of human recombinant N-terminal His-tagged GSK3beta expressed in Escherichia coli using RRRPASVPPSPSLS RHS(pS)HQRR as substrate incubated for 30 mins in presence of ATP by Kinase-Glo reagent based luminescence assay
# Acetylcholinesterase [3] = target: Acetylcholinesterase (Electrophorus electricus, UniProt O42275); experiment: Inhibition of electric eel recombinant AChE preincubated for 1 min in presence of DNTB followed by addition of acetylthiocholine iodide substrate and measured after 20 mins by Ellman's method
# Chain of Acetylcholinesterase (Electrophorus electricus, UniProt O42275) (O42275 whole entry): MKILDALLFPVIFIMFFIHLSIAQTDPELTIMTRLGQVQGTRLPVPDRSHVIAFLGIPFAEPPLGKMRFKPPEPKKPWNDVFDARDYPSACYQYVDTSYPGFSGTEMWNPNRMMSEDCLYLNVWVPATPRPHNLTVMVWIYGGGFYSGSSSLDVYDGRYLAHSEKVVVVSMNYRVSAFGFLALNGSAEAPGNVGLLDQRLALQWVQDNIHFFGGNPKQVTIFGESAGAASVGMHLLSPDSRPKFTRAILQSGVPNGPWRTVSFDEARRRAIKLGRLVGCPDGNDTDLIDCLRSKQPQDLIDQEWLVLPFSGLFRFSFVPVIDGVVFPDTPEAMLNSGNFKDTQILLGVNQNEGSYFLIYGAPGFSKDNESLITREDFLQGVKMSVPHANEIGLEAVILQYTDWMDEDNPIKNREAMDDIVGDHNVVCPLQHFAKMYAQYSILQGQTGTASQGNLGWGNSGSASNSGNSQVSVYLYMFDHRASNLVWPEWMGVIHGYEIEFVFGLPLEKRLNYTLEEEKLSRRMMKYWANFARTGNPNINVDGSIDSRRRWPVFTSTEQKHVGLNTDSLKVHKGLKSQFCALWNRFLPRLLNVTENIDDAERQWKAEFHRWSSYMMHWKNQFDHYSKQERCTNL
# Chain of Acetylcholinesterase (Homo sapiens, UniProt P22303) (P22303 whole entry): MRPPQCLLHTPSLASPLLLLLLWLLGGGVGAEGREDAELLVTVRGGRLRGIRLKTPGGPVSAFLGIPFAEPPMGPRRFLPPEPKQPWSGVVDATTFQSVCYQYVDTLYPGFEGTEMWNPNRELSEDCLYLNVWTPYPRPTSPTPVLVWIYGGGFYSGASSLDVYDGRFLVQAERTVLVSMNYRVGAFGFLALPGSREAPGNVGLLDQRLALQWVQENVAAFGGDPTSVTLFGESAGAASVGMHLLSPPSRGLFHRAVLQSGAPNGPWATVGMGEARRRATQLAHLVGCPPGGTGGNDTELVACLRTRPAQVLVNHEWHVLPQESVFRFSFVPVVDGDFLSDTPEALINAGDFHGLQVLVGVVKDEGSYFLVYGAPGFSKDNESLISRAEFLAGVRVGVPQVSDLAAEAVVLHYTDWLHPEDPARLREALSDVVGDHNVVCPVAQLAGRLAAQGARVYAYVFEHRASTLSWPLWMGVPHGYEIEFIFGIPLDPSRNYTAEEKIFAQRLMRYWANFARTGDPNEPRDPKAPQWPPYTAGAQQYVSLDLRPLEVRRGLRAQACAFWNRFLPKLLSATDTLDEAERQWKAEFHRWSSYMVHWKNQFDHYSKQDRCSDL
# Chain of Glycogen synthase kinase-3 beta (P49841 whole entry): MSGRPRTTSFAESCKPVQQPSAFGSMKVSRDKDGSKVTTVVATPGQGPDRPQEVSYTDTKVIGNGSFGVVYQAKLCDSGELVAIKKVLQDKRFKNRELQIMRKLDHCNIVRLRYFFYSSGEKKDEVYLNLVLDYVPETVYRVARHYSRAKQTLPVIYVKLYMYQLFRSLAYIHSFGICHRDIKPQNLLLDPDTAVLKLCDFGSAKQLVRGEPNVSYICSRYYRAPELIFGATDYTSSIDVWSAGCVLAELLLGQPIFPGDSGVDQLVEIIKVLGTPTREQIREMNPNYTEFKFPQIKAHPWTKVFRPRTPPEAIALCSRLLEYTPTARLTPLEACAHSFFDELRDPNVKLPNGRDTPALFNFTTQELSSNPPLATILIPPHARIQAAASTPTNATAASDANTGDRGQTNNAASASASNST
SMILES,IC50 (Acetylcholinesterase [1]) [µM],IC50 [2] [nM],IC50 (Acetylcholinesterase [3]) [nM]
Cc1ccccc1CN1CCC(CNC(=O)c2cncc(NC(=O)c3ccnc(NC(=O)C4CC4)c3)c2)CC1,4.09,157,3520
O=C(CC1CCN(Cc2ccc(F)cc2)CC1)Nc1n[nH]c2cc(-c3cccnc3)ccc12,0.518,> 10000,216
O=C(NCC1CCN(Cc2ccccc2)CC1)c1cncc(NC(=O)c2ccnc(NC(=O)C3CC3)c2)c1,1.1,305,1100
COc1cccc(CN2CCC(CNC(=O)c3cncc(NC(=O)c4ccnc(NC(=O)C5CC5)c4)c3)CC2)c1,> 10,126,8910
O=C(CC1CCN(Cc2ccccc2F)CC1)Nc1n[nH]c2cc(-c3cccnc3)ccc12,0.691,> 10000,390
O=C(NCC1CCN(Cc2ccc(F)c(F)c2)CC1)c1cncc(NC(=O)c2ccnc(NC(=O)C3CC3)c2)c1,3.07,279,1050
O=C(Nc1cccc(OCC2CCN(Cc3ccc(F)cc3)CC2)c1)c1ccnc(NC(=O)C2CC2)c1,–,> 10000,> 10000
O=C(NC1CCN(Cc2ccccc2)CC1)c1cncc(NC(=O)c2ccnc3[nH]ccc23)c1,0.358,6800,311
Cc1cccc(CN2CCC(CNC(=O)c3cncc(NC(=O)c4ccnc(NC(=O)C5CC5)c4)c3)CC2)c1,6360,198,4160
O=C(NCC1CCN(Cc2ccccc2)CC1)c1n[nH]c2ccc(-c3cccnc3)cc12,1.09,95,552
O=C(NCC1CCN(Cc2cccc(Cl)c2)CC1)c1cncc(NC(=O)c2ccnc(NC(=O)C3CC3)c2)c1,1.09,231,678
O=C(CC1CCN(Cc2ccccc2)CC1)Nc1n[nH]c2cc(-c3cccnc3)ccc12,0.509,> 10000,264
O=C(Nc1cccc(OCC2CCN(Cc3ccccc3)CC2)c1)c1ccnc(NC(=O)C2CC2)c1,1.39,9750,843
O=C(Nc1cncc(C(=O)NC2CCN(Cc3ccccc3)CC2)c1)c1ccnc(NC(=O)C2CC2)c1,0.622,81,704
O=C(NCC1CCN(Cc2ccccc2F)CC1)c1n[nH]c2ccc(-c3cccnc3)cc12,2.18,79,718
O=C(NCC1CCN(Cc2cccc(F)c2)CC1)c1cncc(NC(=O)c2ccnc(NC(=O)C3CC3)c2)c1,2.39,97,1020
